For test [1], the system named is H+, K+-ATPase. In words: Intracellular pH recovery in isolated rat fundic (F1) glands. Format: cell-based. Particulars: for alkalinization rate of F1 glands: 100 μM secretagogue alone. As to the method:
Male Sprague Dawley rats weighing 200-300 g were housed in climate and humidity controlled, light cycled rooms and fed standard chow with free access to water. Prior to experiments, animals were fasted while allowing free access to water for 18-24 hours to reduce basal acid secretion. Following isoflurane anesthesia the animals were sacrificed, an abdominal incision was made exposing the stomach. After isolating the esophagus and duodenal junctures a total gastrectomy was performed with 1-2 cm of esophagus remaining attached to the gastrectomy. We included the esophageal juncture to have a common landmark for all fundic isolations. While holding the esophagus with forceps approximately 3 mm of fundus was removed with 5 mm of the intact esophagus. The removed fundic tissue was placed in ice cold HEPES-buffered Ringer-solution (pH adjusted to 7.4 at 4° C.) and transferred to the stage of a dissection microscope. The fundic glands were visualized under the microscope at 50× magnification. Glands adjacent to the esophageal junction were hand dissected. Following isolation, individual glands were adhered to cover slips that had been pretreated with the biological adhesive Cell-Tak (Cell-Tak™ cell adhesive, BD Biosciences; Bedford, Mass.) […] Molecular Probes, OR USA)) for 15 minutes. […] Measurements were performed in the epifluorescence mode with 60×/0.80 and 40×/0.90 objectives. […] Data points were acquired every 15 s. […] Acid extrusion was monitored in the absence of bicarbonate. […] All data are summarized as mean±S.E. Significance was determined using the one-way ANOVA test with p<0.05 considered to be statistically significant. All chemicals used were obtained from Sigma and Molecular Probes.

Test [2] addresses T1, H+/K+-ATPase (Rattus norvegicus, UniProt P09626).
T1 construct: Individual glands were isolated using a hand-dissection technique; from tissue; host or cells: hand-dissected gastric glands of Sprague-Dawley rats (corpus/antrum)
In words: Intracellular pH recovery in rat corpus glands (comparison with fundus). Type of test: cell-based. As to the method:
Molecular Probes, OR USA)) for 15 minutes. […] Measurements were performed in the epifluorescence mode with 60×/0.80 and 40×/0.90 objectives. […] Data points were acquired every 15 s. […] Acid extrusion was monitored in the absence of bicarbonate. […] All data are summarized as mean±S.E. Significance was determined using the one-way ANOVA test with p<0.05 considered to be statistically significant. All chemicals used were obtained from Sigma and Molecular Probes.

Test [3] concerns the target T1, H+/K+-ATPase. In words: Oral zinc supplementation in rats, histamine induced proton extrusion of isolated glands. Type of test: in vivo. As to the method: Oral Zinc supplementation in rats. These studies were designed to modulate acid secretion by increasing dietary zinc. In these studies we used an oral ZnCl2 solution (zinc chloride in tap water). The animals had free access to food and the zinc containing water for the duration of the study. […] Animals had free access to water prior to the experiment and were fed with standard chow until 24 hours before the experiment, at which point they had free access to ZnCl2 containing water only. After the 5 days exposure period and the 24 hour fast, the animals were sacrificed and a total gastrectomy was performed on the animals. Individual gastric glands were isolated with the hand dissection technique described above.

The test system of test [4] is histamine induced gastric acid secretion. In words: Whole stomach pH measurements, ex vivo rat whole stomach preparation. The method, then:
Whole stomach pH measurements. Before the experiments animals were fasted for 24 h to reduce basal acid secretion to a consistent minimum. Animals were killed with an overdose of isoflurane and an abdominal incision was made. The stomach was ligated at the duodenal and esophageal junction and excised. Then 1 ml of non buffered, isotonic saline (140 mM) was infused into the lumen of the stomach. […] The stomachs were then placed in either oxygenated HEPES-buffered Ringer solution or in the same solution containing 100 μM histamine alone or additionally 300 μM ZnCl2 (pH 7.4) and maintained at 37° C. After 1 hour the stomach contents were aspirated and the pH was recorded.

Test [5] concerns the target T1, H+/K+-ATPase. As to the kind of experiment: Intracellular pH recovery (proton extrusion) in isolated rat gastric glands, NH4Cl prepulse, BCECF. Format: cell-based. The method, then: Animals. Sprague-Dawley rats 150-250 g (Charles River Laboratory)) were housed in climate- and humidity-controlled, light-cycled rooms, fed standard chow with free access to water, and handled according to the humane practices of animal care established by the Yale Animal Care. Prior to experiments, animals were fasted for 18-24 hours with free access to water.
(§1) Isolation of rat and human gastric Glands. Following removal of the stomach, the stomach was opened longitudinally and the corpus and antrum isolated and sliced into 0.5 cm square sections, and washed with cold Ringer solution to remove residual food particles. The tissues were transferred to the stage of a dissecting microscope. Individual glands were isolated using a hand-dissection technique as described previously^36. Following isolation, individual isolated glands were allowed to adhere to cover slips that had been pre-coated with Cell-Tak (Collaborative Research, Bedford, Mass.) and were transferred to the stage of an inverted microscope.
(§2) Digital imaging for intracellular pH. Isolated gastric glands were incubated in a HEPES-buffered Ringer's solution containing either 10 μmol of the pH-sensitive dye BCECF-AM (2′,7′)-bis-(2-carboxyethyl)-5-(and-6)-carboxy-fluorescin, aceto-methyl ester (Molecular Probes, Eugene, Oreg.) for 10 minutes as described previously^37-39. […] A minimum of 8 cells or regions was selected per gland.
(§3) Proton extrusion by individual parietal cells was monitored by observing recovery of pHi after acid loading the cells with Na^+ free HEPES solution containing 20 mM NH4Cl.
(§4) The recovery rates are expressed as the ΔpH/min, and were calculated over the pH range of 6.5-6.8.

Test [6] deals with H+/K+-ATPase (Homo sapiens, UniProt P20648). As to the kind of experiment: Intracellular pH recovery (proton extrusion) in isolated human gastric glands. Format: cell-based. The settings on record: histamine stimulation.
Description: as §1, §2, §3, §4

The text below walks through data of US11510894B2, “Fast acting inhibitor of gastric acid secretion” (priority 2006, dated 2022).

Each structure is given as a SMILES string. Where “and” joins values, the source holds several entries; their conditions need not be identical. Equal entries are not always repeated. Entries after “also recorded” stand apart in the source; their conditions may differ.

T1 sequence (P09626 whole entry): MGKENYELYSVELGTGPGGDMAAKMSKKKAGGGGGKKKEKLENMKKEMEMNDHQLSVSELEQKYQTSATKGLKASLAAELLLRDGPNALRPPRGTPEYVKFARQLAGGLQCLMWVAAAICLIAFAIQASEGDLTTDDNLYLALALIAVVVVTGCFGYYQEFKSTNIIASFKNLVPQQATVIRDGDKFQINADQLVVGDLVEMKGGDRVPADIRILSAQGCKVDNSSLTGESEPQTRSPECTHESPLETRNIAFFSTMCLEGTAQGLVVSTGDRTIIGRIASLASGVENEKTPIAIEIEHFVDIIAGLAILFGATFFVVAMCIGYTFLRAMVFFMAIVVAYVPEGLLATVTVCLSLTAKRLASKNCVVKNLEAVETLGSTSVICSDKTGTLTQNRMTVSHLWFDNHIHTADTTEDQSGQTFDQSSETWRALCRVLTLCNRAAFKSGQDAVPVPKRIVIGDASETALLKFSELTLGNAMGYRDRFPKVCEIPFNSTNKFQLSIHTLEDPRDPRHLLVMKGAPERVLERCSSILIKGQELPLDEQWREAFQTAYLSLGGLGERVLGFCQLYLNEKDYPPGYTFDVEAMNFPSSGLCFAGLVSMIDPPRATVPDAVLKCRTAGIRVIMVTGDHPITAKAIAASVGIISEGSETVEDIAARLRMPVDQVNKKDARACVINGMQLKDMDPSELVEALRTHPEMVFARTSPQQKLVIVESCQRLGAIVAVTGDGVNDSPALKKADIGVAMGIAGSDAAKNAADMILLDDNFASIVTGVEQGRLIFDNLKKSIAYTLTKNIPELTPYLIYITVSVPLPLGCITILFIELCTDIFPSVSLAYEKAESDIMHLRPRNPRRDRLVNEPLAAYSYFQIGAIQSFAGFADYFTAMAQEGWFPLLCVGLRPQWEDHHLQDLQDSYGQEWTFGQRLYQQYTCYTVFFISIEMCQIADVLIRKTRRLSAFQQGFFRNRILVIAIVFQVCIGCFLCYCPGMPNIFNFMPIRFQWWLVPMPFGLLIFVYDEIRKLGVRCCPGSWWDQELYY
T1 sequence (P18598 whole entry partner): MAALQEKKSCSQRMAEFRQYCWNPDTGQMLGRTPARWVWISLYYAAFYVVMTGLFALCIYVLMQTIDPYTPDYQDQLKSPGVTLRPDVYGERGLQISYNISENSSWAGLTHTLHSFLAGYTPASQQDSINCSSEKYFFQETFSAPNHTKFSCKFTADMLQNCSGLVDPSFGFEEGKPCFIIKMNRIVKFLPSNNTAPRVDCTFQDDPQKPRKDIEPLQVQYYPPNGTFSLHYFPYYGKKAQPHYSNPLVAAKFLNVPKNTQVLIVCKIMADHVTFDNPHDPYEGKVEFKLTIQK
H+/K+-ATPase (Homo sapiens, UniProt P20648), sequence (P20648 whole entry): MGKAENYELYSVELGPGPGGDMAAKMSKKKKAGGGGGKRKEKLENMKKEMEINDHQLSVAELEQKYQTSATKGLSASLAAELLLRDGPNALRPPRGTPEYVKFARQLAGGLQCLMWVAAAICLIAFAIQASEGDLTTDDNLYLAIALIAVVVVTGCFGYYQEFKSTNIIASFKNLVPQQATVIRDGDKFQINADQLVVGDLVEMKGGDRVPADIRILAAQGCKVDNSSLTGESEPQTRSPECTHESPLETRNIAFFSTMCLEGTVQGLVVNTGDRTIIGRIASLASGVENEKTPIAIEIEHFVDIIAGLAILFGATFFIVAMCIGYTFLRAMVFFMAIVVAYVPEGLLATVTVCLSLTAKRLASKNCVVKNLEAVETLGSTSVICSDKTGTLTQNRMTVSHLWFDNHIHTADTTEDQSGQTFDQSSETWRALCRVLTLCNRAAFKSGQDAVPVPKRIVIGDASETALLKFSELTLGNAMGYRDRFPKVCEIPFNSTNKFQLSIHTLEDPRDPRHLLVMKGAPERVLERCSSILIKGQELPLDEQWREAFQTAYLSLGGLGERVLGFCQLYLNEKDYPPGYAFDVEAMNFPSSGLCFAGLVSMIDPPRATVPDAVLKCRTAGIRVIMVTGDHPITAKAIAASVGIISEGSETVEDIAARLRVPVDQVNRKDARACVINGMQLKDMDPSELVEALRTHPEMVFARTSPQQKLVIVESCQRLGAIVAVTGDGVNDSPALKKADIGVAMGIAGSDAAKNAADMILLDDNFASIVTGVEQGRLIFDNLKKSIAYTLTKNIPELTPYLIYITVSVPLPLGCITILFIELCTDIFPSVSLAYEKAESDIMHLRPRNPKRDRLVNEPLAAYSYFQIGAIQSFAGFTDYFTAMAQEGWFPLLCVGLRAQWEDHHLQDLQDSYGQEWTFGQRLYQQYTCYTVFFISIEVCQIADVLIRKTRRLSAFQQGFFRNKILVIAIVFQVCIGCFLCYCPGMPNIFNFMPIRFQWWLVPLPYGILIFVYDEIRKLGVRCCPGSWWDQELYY
H+/K+-ATPase (Homo sapiens, UniProt P20648), sequence (P51164 whole entry partner): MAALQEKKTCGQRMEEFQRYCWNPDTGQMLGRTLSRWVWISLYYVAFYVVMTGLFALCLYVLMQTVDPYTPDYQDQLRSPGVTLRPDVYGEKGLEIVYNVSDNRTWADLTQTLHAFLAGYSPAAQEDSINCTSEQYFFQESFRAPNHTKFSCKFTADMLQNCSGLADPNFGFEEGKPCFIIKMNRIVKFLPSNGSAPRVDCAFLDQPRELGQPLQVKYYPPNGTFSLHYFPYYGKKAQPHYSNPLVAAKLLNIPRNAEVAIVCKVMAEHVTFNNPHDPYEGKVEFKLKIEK

On to `COc1ccc2[nH]c([S+]([O-])Cc3ncc(C)c(OC)c3C)nc2c1` (centres unmarked) [omeprazole], for which, in test [1] (200 μM omeprazole and 100 μM histamine), the “alkalinization rate of fundic glands” value is listed as 0.045±0.002 ΔpHi/min.
With `Cc1cccc(C)c1CNc1cc(C(=O)NCCO)cn2c(C)c(C)nc12` [AZD0865], the “inhibition of acid secretion in corpus glands, in words” value in test [2] (omeprazole 200 μM, AZD0865 10 μM) is reported as “effectively inhibits acid secretion; also recorded: strong inhibition”. Further, the “inhibition of acid secretion in F1 (fundic) glands, in words” value in test [1] (omeprazole 200 μM with histamine 100 μM, AZD0865 10 μM) was “does not completely inhibit proton extrusion”.
Consider `NCCc1c[nH]cn1` [histamine], for which the “recovery rate (proton extrusion) of histamine stimulated parietal cells” value in test [3] (control group, histamine alone, no zinc) is recorded as 0.051±0.004. Further, the “histamine stimulated proton extrusion rate in corpus gland” value in test [2] (100 μM histamine) was 0.056±0.008 ΔpHi/min. In addition, in test [1] (100 μM), the “effect of secretagogue on F1 zone glands in comparison to controls, in words” value is given as “no effect”. The “alkalinization rate of F1 glands” value in test [1] is 0.04±0.0079 ΔpHi/min and 0.042±0.007 ΔpHi/min. For the same compound, the “mean luminal pH” value in test [4] (100 μM histamine, 1 hour) was found to be 3.15±0.27.
On to `CC(=O)OCC[N+](C)(C)C` [acetylcholine], for which the “alkalinization rate of F1 glands” value in test [1] is given as 0.075±0.0015 ΔpHi/min.
For the compound `[Cl-].[Cl-].[Zn+2]` [ZnCl2, zinc chloride], the “inhibition of proton extrusion compared to the histamine induced rate” value in test [5] (300 μM ZnCl2, 100 μM histamine) turned out to be 98%. Further, the “effect on histamine induced proton efflux from gastric glands” value in test [5] (300 umol ZnCl2, histamine 100 μM) is “blocked”. The “onset of inhibition of histamine induced acid secretion” value in test [5] (ZnCl2 300 μM added to superfusion bath, histamine 100 μM) is on record as “abolished after a few seconds”. For the same compound, the “histamine induced proton extrusion rate after oral ZnCl2” value is 0.034±0.0036 in test [3] (0.5 mg/kg/d ZnCl2 in drinking water for 5 days) and 0.022±0.0045 in test [3] (150 mg/kg/d ZnCl2 in drinking water for 5 days). The “effect on histamine stimulated proton efflux in human gastric glands” value in test [6] is “abolished”. For the same compound, the “mean luminal pH” value in test [4] (100 μM histamine and 300 μM ZnCl2, 1 hour) is given as 4.54±0.065. Also, the “whole stomach pH in words” value in test [4] (100 μmol histamine and 300 μmol ZnCl2) was “higher pH than those in HEPES-buffered Ringer solution and histamine”.
